We go through 24 compounds from patent US20240150365A1 (Hotspot Therapeutics, Inc., priority 2022, published 2024).

A value given as a limit tells only on which side of the number the result lay.

One assay has as its system NF-kB. Nature of the assay: NF-kB reporter assay in Jurkat cells stimulated with aCD3/aCD28/PMA. The class given is cell-based. The following applies: Homo sapiens, Jurkat, Jurkat cells, 1 hr compound incubation, aCD3/aCD28/PMA stimulation 4 hr, One-Glo readout; read-out: NF-kB Reporter Assay IC50. Put shortly:
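Stimulation used final aCD3 5 μg/mL, aCD28 5 μg/mL and PMA 0.03 μg/mL for 4 hr at 37° C, after 1 hr compound pretreatment of 25,000 serum-starved Jurkat cells per well. One-Glo luminescence gave IC50 values.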
A general note: Reporter assays use an easily measured gene product as a stand-in for the process of interest.

A further assay addresses T1, MALT1 (Homo sapiens, UniProt Q9UDY8).
T1 construct: Avi-tagged FL MALT-1 (Pharmaron, stored at −70° C.); Avi tag
T1 sequence (Q9UDY8 1-824): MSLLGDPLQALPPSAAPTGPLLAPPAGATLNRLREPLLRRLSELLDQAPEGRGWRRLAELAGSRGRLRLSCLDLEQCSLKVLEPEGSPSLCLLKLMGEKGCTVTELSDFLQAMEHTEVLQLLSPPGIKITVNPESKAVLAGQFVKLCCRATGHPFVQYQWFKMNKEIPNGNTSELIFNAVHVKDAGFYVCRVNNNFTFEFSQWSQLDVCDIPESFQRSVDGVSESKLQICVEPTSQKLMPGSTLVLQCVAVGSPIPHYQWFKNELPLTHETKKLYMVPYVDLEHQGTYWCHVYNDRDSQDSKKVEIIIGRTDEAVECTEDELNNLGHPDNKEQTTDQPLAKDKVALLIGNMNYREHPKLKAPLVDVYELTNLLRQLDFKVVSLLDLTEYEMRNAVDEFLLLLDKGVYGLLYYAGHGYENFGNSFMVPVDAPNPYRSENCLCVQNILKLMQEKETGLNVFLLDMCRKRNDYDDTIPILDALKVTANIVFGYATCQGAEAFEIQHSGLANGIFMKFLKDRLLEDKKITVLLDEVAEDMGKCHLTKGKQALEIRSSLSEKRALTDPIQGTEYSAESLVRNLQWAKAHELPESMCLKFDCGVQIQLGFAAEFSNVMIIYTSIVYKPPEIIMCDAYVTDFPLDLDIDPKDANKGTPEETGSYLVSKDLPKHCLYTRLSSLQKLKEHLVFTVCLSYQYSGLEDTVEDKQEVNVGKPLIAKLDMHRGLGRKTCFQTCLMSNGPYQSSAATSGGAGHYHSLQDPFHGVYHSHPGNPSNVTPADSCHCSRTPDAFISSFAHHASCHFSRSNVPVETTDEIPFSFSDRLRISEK
The assay can be described thus: MALT-1 Fluorogenic Peptide Cleavage Assay (MALT1 inhibition assay). The format is biochemical. The following applies: Avi-tagged FL MALT-1, Ac-LRSR-AMC peptide substrate, 30 min pre-incubation, 90 min reaction. In short, it runs like this:
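IC50 from sigmoidal fits of % inhibition, with fluorescence (ex 342, em 441 nm) from AMC released from the quenched LRSR peptide after 90 min at room temperature. Full-length Avi-tagged MALT1 saw compound for 30 min first; final DMSO 2%.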

What is called IC50 is the concentration at which inhibition is half-maximal. In the case of `COc1ccc2[nH]cc(C)c2c1NS(=O)(=O)c1ccc(-n2cc(C(F)(F)F)cn2)nc1` [Example I-174, N-(5-methoxy-3-methyl-1H-indol-4-yl)-6-(4-(trifluoromethyl)-1H-pyrazol-1-yl)pyridine-3-sulfonamide], the IC50 with NF-kB and against MALT1 was under 400 nM in each case.

As for `COc1ccc2cn[nH]c2c1NS(=O)(=O)c1ccc(-n2cc(C(F)(F)F)cn2)nc1` [Example I-175, N-(6-methoxy-1H-indazol-7-yl)-6-(4-(trifluoromethyl)-1H-pyrazol-1-yl)pyridine-3-sulfonamide], the IC50 with NF-kB and at MALT1 was under 400 nM in each case.

In the case of `COc1ccc2cnn(C)c2c1NS(=O)(=O)c1ccc(-c2nc(C)n(C)n2)nc1` [Example I-176, 6-(1,5-Dimethyl-1,2,4-Triazol-3-yl)-N-(6-Methoxy-1-Methylindazol-7-yl)Pyridine-3-Sulfonamide], the IC50 in the assay on NF-kB and on MALT1 was over 2500 nM each time.

`COc1ccc2cnn(C)c2c1NS(=O)(=O)c1ccc(CO)nc1` [Example I-177, 6-(Hydroxymethyl)-N-(6-Methoxy-1-Methyl-1H-Indazol-7-yl)Pyridine-3-Sulfonamide]: the IC50 with NF-kB and on MALT1 was over 2500 nM each time.

`COc1ccc2cnn(C)c2c1NS(=O)(=O)c1ccc(C(C)(C)O)nc1` [Example I-178, 6-(2-Hydroxypropan-2-yl)-N-(6-Methoxy-1-Methyl-1H-Indazol-7-yl)Pyridine-3-Sulfonamide]: the IC50 in the assay on NF-kB and at MALT1 was over 2500 nM in each case.

Take `Cn1c(=O)c2cccc(N)c2n1S(=O)(=O)c1ccc(-n2cc(C(F)(F)F)cn2)nc1` [Example I-179, 7-Amino-2-Methyl-1-((6-(4-(Trifluoromethyl)-1H-Pyrazol-1-yl)Pyridin-3-yl)Sulfonyl)-1,2-Dihydro-3H-Indazol-3-One]: the IC50 in the assay on NF-kB and against MALT1 was over 2500 nM throughout.

Consider `COc1ncc2nnn(C)c2c1NS(=O)(=O)c1ccc(-n2cc(C(F)(F)F)cn2)nc1` [Example I-180, N-{6-methoxy-1-methyl-[1,2,3]triazolo[4,5-c]pyridin-7-yl}-6-[4-(trifluoromethyl)pyrazol-1-yl]pyridine-3-sulfonamide], for which the IC50 in the assay with NF-kB lay in the range of 1000 to 2500 nM; on MALT1, 400 to 1000 nM.

In the case of `Cn1[nH]c2c(NS(=O)(=O)c3ccc(-n4cc(C(F)(F)F)cn4)nc3)cccc2c1=O` [Example I-181, N-(2-methyl-3-oxo-2,3-dihydro-1H-indazol-7-yl)-6-(4-(trifluoromethyl)-1H-pyrazol-1-yl)pyridine-3-sulfonamide], the IC50 in the assay on NF-kB was 400 to 1000 nM; on MALT1 it was over 2500 nM.

For `Cn1c(=O)c2c(NS(=O)(=O)c3ccc(-n4cc(C(F)(F)F)cn4)nc3)cccc2n1C` [Example I-182, N-(1,2-dimethyl-3-oxo-2,3-dihydro-1H-indazol-4-yl)-6-(4-(trifluoromethyl)-1H-pyrazol-1-yl)pyridine-3-sulfonamide], the IC50 with NF-kB and on MALT1 was over 2500 nM in each case.

For the compound `COc1ncc2cnn(C)c2c1N(C)S(=O)(=O)c1ccc(-n2cc(C(F)(F)F)cn2)nc1` [Example I-183, N-(6-methoxy-1-methyl-1H-pyrazolo[4,3-c]pyridin-7-yl)-N-methyl-6-(4-(trifluoromethyl)-1H-pyrazol-1-yl)pyridine-3-sulfonamide], the IC50 in the assay on NF-kB and on MALT1 was under 400 nM each time.

With `COc1ncc2cnn(C)c2c1NS(=O)(=O)c1ccc(-n2cc(C)cn2)nc1` [Example I-184, N-{6-methoxy-1-methylpyrazolo[4,3-c]pyridin-7-yl}-6-(4-methylpyrazol-1-yl)pyridine-3-sulfonamide], the IC50 with NF-kB and on MALT1 was under 400 nM each time.

On to `COc1ncc2cnn(C)c2c1NS(=O)(=O)c1ccc(-n2ccc(C3CC3)n2)nc1` [Example I-185, 6-(3-cyclopropyl-1H-pyrazol-1-yl)-N-(6-methoxy-1-methyl-1H-pyrazolo[4,3-c]pyridin-7-yl)pyridine-3-sulfonamide], for which the IC50 with NF-kB and against MALT1 was under 400 nM each time.

In the case of `COc1ncc2cnn(C)c2c1NS(=O)(=O)c1ccc(-c2csc(C)n2)nc1` [Example I-186, N-(6-methoxy-1-methyl-1H-pyrazolo[4,3-c]pyridin-7-yl)-6-(2-methylthiazol-4-yl)pyridine-3-sulfonamide], the IC50 in the assay on NF-kB and on MALT1 was under 400 nM throughout.

As for `COc1ncc2cnn(C)c2c1NS(=O)(=O)c1ccc(-n2cc(C3CC3)cn2)nc1` [Example I-187, 6-(4-cyclopropylpyrazol-1-yl)-N-{6-methoxy-1-methylpyrazolo[4,3-c]pyridin-7-yl}pyridine-3-sulfonamide], the IC50 in the assay on NF-kB and against MALT1 was under 400 nM each time.

On to `COc1ccc2ccn(C)c2c1NS(=O)(=O)c1ccc(-n2cc(C(F)(F)F)cn2)nc1` [Example I-188, N-(6-methoxy-1-methyl-1H-indol-7-yl)-6-(4-(trifluoromethyl)-1H-pyrazol-1-yl)pyridine-3-sulfonamide], for which the concentration for half-maximal inhibition (IC50) in the assay on NF-kB and on MALT1 was under 400 nM throughout.

On to `Cc1ncc2cnn(C)c2c1NS(=O)(=O)c1ccc(-n2cc(C(F)(F)F)cn2)nc1` [Example I-189, N-(1,6-dimethyl-1H-pyrazolo[4,3-c]pyridin-7-yl)-6-(4-(trifluoromethyl)-1H-pyrazol-1-yl)pyridine-3-sulfonamide], for which the IC50 in the assay with NF-kB and at MALT1 was 1000 to 2500 nM throughout.

With `Cn1[nH]c2cccc(NS(=O)(=O)c3ccc(-n4cc(C(F)(F)F)cn4)nc3)c2c1=O` [Example I-190, N-(2-methyl-3-oxo-2,3-dihydro-1H-indazol-4-yl)-6-(4-(trifluoromethyl)-1H-pyrazol-1-yl)pyridine-3-sulfonamide], the IC50 with NF-kB and against MALT1 was over 2500 nM throughout.

For the compound `COc1ccc2cnn(C)c2c1NS(=O)(=O)c1ccc(-n2cc(C(C)(F)F)cn2)nc1` [Example I-191, 6-(4-(1,1-difluoroethyl)-1H-pyrazol-1-yl)-N-(6-methoxy-1-methyl-1H-indazol-7-yl)pyridine-3-sulfonamide], the IC50 in the assay with NF-kB and against MALT1 was under 400 nM throughout.

As to `COc1ncc2cnn(C)c2c1NS(=O)(=O)c1ccc(-n2cc(C(F)F)cn2)nc1` [Example I-192, 6-(4-(difluoromethyl)-1H-pyrazol-1-yl)-N-(6-methoxy-1-methyl-1H-pyrazolo[4,3-c]pyridin-7-yl)pyridine-3-sulfonamide], the IC50 in the assay on NF-kB and against MALT1 was under 400 nM in each case.

Take `COc1ncc2cnn(C)c2c1NS(=O)(=O)c1ccc(-n2cc(F)cn2)nc1` [Example I-193, 6-(4-fluoro-1H-pyrazol-1-yl)-N-(6-methoxy-1-methyl-1H-pyrazolo[4,3-c]pyridin-7-yl)pyridine-3-sulfonamide]: the IC50 with NF-kB and on MALT1 was under 400 nM in each case.

As for `COc1ncc2cnn(C)c2c1NS(=O)(=O)c1ccc(-n2cc(C(C)C)cn2)nc1` [Example I-194, 6-(4-isopropyl-1H-pyrazol-1-yl)-N-(6-methoxy-1-methyl-1H-pyrazolo[4,3-c]pyridin-7-yl)pyridine-3-sulfonamide], the IC50 in the assay on NF-kB and on MALT1 was under 400 nM in each case.

For the compound `COc1ncc2cnn(C)c2c1N(C)S(=O)(=O)c1ccc(-n2ccc(C(F)(F)F)n2)nc1` [Example I-195, N-(6-Methoxy-1-Methyl-1H-Pyrazolo[4,3-C]Pyridin-7-yl)-N-Methyl-6-(3-(Trifluoromethyl)-1H-Pyrazol-1-yl)Pyridine-3-Sulfonamide], the IC50 with NF-kB and at MALT1 was under 400 nM in each case.

Turning to `COc1ncc2cnn(C)c2c1NS(=O)(=O)c1ccc(-n2ccc(C)n2)nc1` [Example I-197, N-{6-methoxy-1-methylpyrazolo[4,3-c]pyridin-7-yl}-6-(3-methylpyrazol-1-yl)pyridine-3-sulfonamide], the IC50 in the assay with NF-kB and against MALT1 was under 400 nM each time.

Turning to `Cn1[nH]c(=O)c2c(NS(=O)(=O)c3ccc(-n4cc(C(F)(F)F)cn4)nc3)cccc21` [Example I-198, N-(1-methyl-3-oxo-2,3-dihydro-1H-indazol-4-yl)-6-(4-(trifluoromethyl)-1H-pyrazol-1-yl)pyridine-3-sulfonamide], the IC50 is 1000 to 2500 nM with NF-kB and over 2500 nM on MALT1.
